Data reported in article PMC6744390 (Drug Metabolism and Disposition, 2019).

Columns and labels:
[1] = Plasma protein binding by high-throughput equilibrium dialysis; type: in vitro ADME, dog; details: both, dog, plasma
plasma proteins = assay: as above; type: in vitro ADME, dog; details: Mann–Whitney U test, n = 6 per group

| Structure (SMILES) | fraction unbound at 4 h, 4 µM [1] | difference in plasma protein binding between H1 and H2 allele plasma (plasma proteins) |
| --- | --- | --- |
| Cc1ccc(-c2cc(C(F)(F)F)nn2-c2ccc(S(N)(=O)=O)cc2)cc1 [celecoxib] | < 0.02 | No significant difference |
| COc1c(C)c2c(c(O)c1C/C=C(\C)CCC(=O)O)C(=O)OC2 [mycophenolic acid] |  | No significant difference |
